Legend:
H929 cells = test: Apoptosis by flow cytometry (Annexin V / propidium iodide); type: cell-based; conditions: 5 and 7 days, Compound A 2 μM, lenalidomide 2 μM, pomalidomide 1 μM
Description: Flow cytometry analysis was then used to measure the number of healthy and apoptotic cells under each treatment condition.
(§1) H929 (FIGS. 7A & 7B) or MM.1s (FIGS. 7C & 7D) myeloma cells were exposed to drug for 5 (FIGS. 7A & 7C) and 7 (FIGS. 7B & 7D) days, and apoptosis was assessed by flow cytometry by measuring Annexin V binding and cellular permeability to propidium iodide. The relative fraction of cells that were live, in early apoptosis, in late apoptosis, or dead was then determined.

MM.1s myeloma cells [1] = test: as above; type: cell-based; conditions: 5 and 7 days, Compound A 2 μM, lenalidomide 2 μM, pomalidomide 1 μM
Description: as §1

H929 myeloma cells = test: Cell cycle distribution by flow cytometry (propidium iodide); type: cell-based; conditions: 3 and 5 days, Compound A 2 μM, lenalidomide 2 μM, pomalidomide 1 μM
Description: (§2) H929 (FIGS. 6A & 6B) or MM.1s (FIGS. 6C & 6D) myeloma cells were exposed to drug for 3 (FIGS. 6A & 6C) and 5 (FIGS. 6B & 6D) days and cell cycle distribution was assessed by flow cytometry via incorporation of propidium iodide. The relative fraction of cells in each stage of the cell cycle (G0/G1, S, and G2/M) as well as the fraction of dead cells (Sub G1) was then estimated.

MM.1s myeloma cells [2] = test: as above; type: cell-based; conditions: 3 and 5 days, Compound A 2 μM, lenalidomide 2 μM, pomalidomide 1 μM
Description: as §2

α-tubulin = test: Acetylation of α-tubulin in H929 cells (immunoblot); type: cell-based
[3] = test system: interferon regulated genes; test: Gene Set Enrichment Analysis (GSEA) of microarray data; type: cell-based, human; conditions: single agent vs. DMSO at 48 hours (pomalidomide 1 μM; Compound A 4 μM)
Description: (§3) The data acquired from Example 7 was analyzed using two approaches: (1) Gene Set Enrichment Analysis (GSEA), and in the (2) Library of Integrated Network-based Cellular Signatures (LINCS) database.
(§4) The goal of the GSEA was to identify gene sets that are enriched in combination treatment over single agent treatment. […] Relevant gene sets were those that were enriched in both queries in the same direction (increased or decreased). For this analysis, the “hallmark gene sets” was chosen as the database, which comprises coherently expressed signatures derived by aggregating many molecular signatures database (MSigDB) gene sets to represent well-defined biological states or processes.

myc target genes = test: as above; type: cell-based, human; conditions: single agent vs. DMSO at 48 hours (pomalidomide 1 μM; Compound A 4 μM)
Description: as §3, §4

XAF1 = XAF1 gene expression (microarray probes); type: cell-based, human; conditions: Compound A 2, 3, 4 μM, pomalidomide 1 μM; 24 hour and 48 hour
From the text: (§5) The chip comprises a human gene expression array having more than 530,000 probes covering more than 36,000 transcripts and variants, which represent more than 20,000 genes mapped through RefSeq or via UniGene annotation. […] In the table, “A” indicates Compound A, and “Pom” indicates pomalidomide.
(§6) Each bar in each group of bars per treatment represents individual transcript probes for measuring gene expression level. […] Finally, there also appeared to be independent time components for each transcript.

CCL4 = CCL4 gene expression (microarray probes); type: cell-based, human; conditions: Compound A 2, 3, 4 μM, pomalidomide 1 μM; 24 hour and 48 hour
From the text: as §5, §6

CASP1 = CASP1 gene expression (microarray probes); type: cell-based, human; conditions: Compound A 2, 3, 4 μM, pomalidomide 1 μM; 24 and 48 hours
Description: as §5
(§7) Finally, both effects were enhanced with time, though dose-dependence was less clear at 48 hours.

BIRC5 = BIRC5 (survivin) gene expression (microarray probes); type: cell-based, human; conditions: Compound A 2, 3, 4 μM, pomalidomide 1 μM; 24 and 48 hours
Description: as §5, §7

[4] = Phase I trials; cited from earlier work
preclinical models of MM = conditions: in vitro and in vivo; cited from earlier work
HDAC6 = target: T1, HDAC6 (Homo sapiens, UniProt Q9UBN7); test: HDAC6 selectivity over other HDACs; type: biochemical
T1 sequence (Q9UBN7 1-1215): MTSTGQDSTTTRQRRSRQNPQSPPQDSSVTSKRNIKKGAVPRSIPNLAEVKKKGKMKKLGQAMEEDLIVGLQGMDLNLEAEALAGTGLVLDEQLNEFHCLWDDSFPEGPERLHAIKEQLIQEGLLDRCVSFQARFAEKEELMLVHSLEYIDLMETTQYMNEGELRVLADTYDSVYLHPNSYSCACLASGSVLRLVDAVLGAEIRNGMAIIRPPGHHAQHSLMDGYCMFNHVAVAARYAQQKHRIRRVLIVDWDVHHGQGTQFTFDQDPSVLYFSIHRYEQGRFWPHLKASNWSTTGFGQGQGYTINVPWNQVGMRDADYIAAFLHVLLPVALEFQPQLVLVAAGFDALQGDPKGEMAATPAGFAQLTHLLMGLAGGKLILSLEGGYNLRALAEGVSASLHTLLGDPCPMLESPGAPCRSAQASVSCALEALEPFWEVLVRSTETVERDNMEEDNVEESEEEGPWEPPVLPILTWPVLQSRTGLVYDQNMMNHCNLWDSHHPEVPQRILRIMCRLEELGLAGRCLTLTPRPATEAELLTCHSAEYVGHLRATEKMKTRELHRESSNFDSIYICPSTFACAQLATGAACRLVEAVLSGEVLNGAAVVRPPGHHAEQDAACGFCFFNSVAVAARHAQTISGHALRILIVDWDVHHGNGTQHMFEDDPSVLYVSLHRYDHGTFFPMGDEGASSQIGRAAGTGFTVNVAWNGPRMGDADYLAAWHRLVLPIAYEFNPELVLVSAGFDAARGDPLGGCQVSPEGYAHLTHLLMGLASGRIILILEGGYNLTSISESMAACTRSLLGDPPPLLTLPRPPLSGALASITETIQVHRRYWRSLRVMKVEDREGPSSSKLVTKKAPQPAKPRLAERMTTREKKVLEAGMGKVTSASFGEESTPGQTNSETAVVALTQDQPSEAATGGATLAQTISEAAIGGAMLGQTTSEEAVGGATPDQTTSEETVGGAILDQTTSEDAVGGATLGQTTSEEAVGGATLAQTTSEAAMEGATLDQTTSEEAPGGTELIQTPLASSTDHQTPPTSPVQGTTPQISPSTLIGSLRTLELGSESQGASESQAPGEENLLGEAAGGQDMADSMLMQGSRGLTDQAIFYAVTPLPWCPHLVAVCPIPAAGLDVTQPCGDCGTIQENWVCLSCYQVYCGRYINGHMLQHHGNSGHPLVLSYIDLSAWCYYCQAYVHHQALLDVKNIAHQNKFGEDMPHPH
From the text: The synthesis of the compounds of Formula I is provided in PCT/US2011/021982, which is incorporated herein by reference in its entirety. The synthesis of compounds of Formula II is provided in PCT/US2011/060791, which is incorporated herein by reference in its entirety. The synthesis of the compounds of Formula III is provided in U.S. Pat. Nos. 5,635,517; 6,281,230; 6,335,349; and 6,476,052; and in International Patent Application No. PCT/US97/013375, each of which is incorporated herein by reference in its entirety.

[5] = Body weight and tolerability in CB17-SCID mice; type: in vivo
Description: Mice carrying H929 tumor xenografts were treated with DMSO, Compound B (50 mg/kg IP QD), pomalidomide (1 mg/kg IP QD), or the combination of Compound B (50 mg/kg IP QD) and pomalidomide (1 mg/kg IP QD) daily for up to 42 days.

H929 = test: Expression profiling with Affymetrix […] microarrays, number of differentially regulated genes; type: cell-based, human; conditions: pomalidomide 1 μM
From the text: as §5

O=C(CCCCCCNC(=O)c1cnc(N(c2ccccc2)c2ccccc2)nc1)NO [Compound A, 2-(diphenylamino)-N-(7-(hydroxyamino)-7-oxoheptyl)pyrimidine-5-carboxamide]
apoptosis (H929 cells): small increase in apoptosis
apoptosis (MM.1s myeloma cells [1]): small increase in apoptosis
cell cycle distribution (H929 myeloma cells): small reduction of cells undergoing division in S phase
cell cycle distribution (MM.1s myeloma cells [2]): small reduction of cells undergoing division in S phase
inhibition of HDAC6: acetylation of α-tubulin (α-tubulin): hyperacetylation of α-tubulin
Normalized Enrichment Score (NES), interferon regulated genes [3]: 2.72
Normalized Enrichment Score (NES), myc targets (myc target genes): −2.23
XAF1 expression (XAF1): consistent dose-dependent induction
CCL4 expression (CCL4): consistent dose-dependent induction
CASP1 expression (CASP1): consistent dose-dependent effect
BIRC5 expression (BIRC5): consistent dose-dependent effect
safety and tolerability profile [4]: improved safety and tolerability profile
synergy with bortezomib (preclinical models of MM): synergizes in vitro and in vivo with bortezomib

O=C(NO)c1cnc(NC2(c3cccc(F)c3)CCCCC2)nc1 [Compound C, 2-((1-(3-fluorophenyl)cyclohexyl)amino)-N-hydroxypyrimidine-5-carboxamide]
selective for HDAC6 over class I HDACs (HDAC6): more than 300 fold

Nc1cccc2c1C(=O)N(C1CCC(=O)NC1=O)C2=O (stereo not shown) [pomalidomide, reference compound]
tolerability, body weight [5]: very well tolerated with no weight loss and no evidence of overt toxicity
number of genes with fold expression changes greater than 2 relative to vehicle: Down (H929; 24 h): 531
number of genes with fold expression changes greater than 2 relative to vehicle: Total (H929; 24 h): 979
number of genes with fold expression changes greater than 2 relative to vehicle: Up (H929; 24 h): 448
number of genes with fold expression changes greater than 2 relative to vehicle: Down (H929; 48 h): 865
number of genes with fold expression changes greater than 2 relative to vehicle: Total (H929; 48 h): 1905
number of genes with fold expression changes greater than 2 relative to vehicle: Up (H929; 48 h): 1040
Normalized Enrichment Score (NES), interferon regulated genes [3]: 2.87
Normalized Enrichment Score (NES), myc targets (myc target genes): −1.97
XAF1 expression (XAF1): small induction
CCL4 expression (CCL4): small induction
CASP1 expression (CASP1): relatively small change
BIRC5 expression (BIRC5): relatively small change

O=C(CCCCCCNC(=O)c1cnc(N(c2ccccc2)c2ccccc2Cl)nc1)NO [Compound B, 2-((2-chlorophenyl)(phenyl)amino)-N-(7-(hydroxyamino)-7-oxoheptyl)pyrimidine-5-carboxamide]
tolerability, body weight [5]: very well tolerated with no weight loss and no evidence of overt toxicity

Reference: patent US11311540B2, “Increasing expression of interferon regulated genes with combinations of histone deacetylase inhibitors and immunomodulatory drugs” (ACETYLON PHARMACEUTICALS, INC., priority 2016, dated 2022)
